According to US6448252B1, “Treatment of equine protozoal myeloencephalitis” (IDEXX Pharmaceuticals, Inc., priority 1996, dated 2002):

Key:
[1] = test system: Plasmodium berghei yoelii; conditions: rodent malaria; cited from earlier work
[2] = horses, oral, 1 mg pyrimethamine/kg once a day for 10 days; cited from earlier work
[3] = test system: Sarcocystis neurona; conditions: EPM in equines; sulfadiazine as the sulfonamide given with pyrimethamine
Procedure: The amounts of each component are based on a liquid suspension having a total volume of about 1 liter. As mentioned above, a useful dosage, e.g., for a 1,000 pound horse infected with Sarcocystis neurona (as evidenced by the presence of the protozoan in a sample from the subject's cerebrospinal fluid) is about 30 mL of the suspension, once a day, given on an empty stomach in the morning.

COc1cc(NC(C)CCCN)c2ncccc2c1 (stereo not shown) [Primaquine diphosphate]
causal prophylactic activity [1]: causal prophylactic activity

CCc1nc(N)nc(N)c1-c1ccc(Cl)cc1 [pyrimethamine]
toxicological problem [2]: does not present a serious toxicological problem

Nc1ccc(S(=O)(=O)Nc2ncccn2)cc1 [sulfadiazine]
causal prophylactic activity [1]: causal prophylactic activity
rate of efficacy [3]: > 70%
